Test results taken from PMC2900413 (Biochemical pharmacology, 2010).
Entries after “also recorded” stand apart in the source; their conditions may differ.

Experiments:
A2AAR [1] = details: read-out: Ki, radioligand binding; reported values; ref [1], [27], [28], [29]; cited from earlier work
A1 AR = target: T1, A1 AR (Homo sapiens, UniProt P30542); assay: Radioligand membrane binding assay at the A1 AR with [3H]R-PIA
T1 sequence (P30542 1-326): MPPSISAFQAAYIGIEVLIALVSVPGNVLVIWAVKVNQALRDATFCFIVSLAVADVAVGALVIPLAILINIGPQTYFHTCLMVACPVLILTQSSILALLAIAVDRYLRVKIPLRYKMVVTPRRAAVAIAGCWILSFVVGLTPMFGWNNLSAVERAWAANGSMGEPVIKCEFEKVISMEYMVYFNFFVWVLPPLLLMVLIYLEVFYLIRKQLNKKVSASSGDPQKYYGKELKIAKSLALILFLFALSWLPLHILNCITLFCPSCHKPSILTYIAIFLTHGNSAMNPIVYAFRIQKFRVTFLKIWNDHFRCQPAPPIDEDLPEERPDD

A3 AR = target: T2, A3 AR (Homo sapiens, UniProt P0DMS8); assay: Radioligand membrane binding assay at the A3 AR with [125I]AB-MECA
T2 sequence (P0DMS8 1-318): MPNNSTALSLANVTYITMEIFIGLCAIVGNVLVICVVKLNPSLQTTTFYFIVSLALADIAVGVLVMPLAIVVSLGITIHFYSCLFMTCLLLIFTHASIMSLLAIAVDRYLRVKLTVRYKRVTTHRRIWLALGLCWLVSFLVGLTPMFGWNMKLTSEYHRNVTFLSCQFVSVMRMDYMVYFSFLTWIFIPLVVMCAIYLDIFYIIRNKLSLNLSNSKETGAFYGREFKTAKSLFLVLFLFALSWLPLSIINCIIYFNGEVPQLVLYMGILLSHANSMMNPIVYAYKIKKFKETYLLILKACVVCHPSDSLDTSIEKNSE

A2B AR = target: T3, A2B AR (Homo sapiens, UniProt P29275); assay: Cyclic AMP accumulation assay, CHO cells expressing the A2B AR; assay type: cell-based; details: at 10 μM
T3 sequence (P29275 1-332): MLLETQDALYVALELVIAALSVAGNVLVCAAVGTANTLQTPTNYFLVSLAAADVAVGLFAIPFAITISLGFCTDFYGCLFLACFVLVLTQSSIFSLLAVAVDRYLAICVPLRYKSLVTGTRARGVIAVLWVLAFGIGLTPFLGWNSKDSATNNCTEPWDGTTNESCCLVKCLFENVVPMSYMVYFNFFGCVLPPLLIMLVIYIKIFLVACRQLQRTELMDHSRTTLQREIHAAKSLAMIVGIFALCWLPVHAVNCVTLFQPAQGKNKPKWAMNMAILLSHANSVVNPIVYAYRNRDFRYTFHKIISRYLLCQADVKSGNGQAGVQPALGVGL

A2AAR [2] = target: A2AAR (Homo sapiens, UniProt P29274); assay: Cyclic AMP accumulation assay, CHO cells expressing the A2AAR; details: CGS21680-induced cyclic AMP accumulation in CHO cells expressing the A2AAR
Sequence of A2AAR (Homo sapiens, UniProt P29274) (P29274 whole entry): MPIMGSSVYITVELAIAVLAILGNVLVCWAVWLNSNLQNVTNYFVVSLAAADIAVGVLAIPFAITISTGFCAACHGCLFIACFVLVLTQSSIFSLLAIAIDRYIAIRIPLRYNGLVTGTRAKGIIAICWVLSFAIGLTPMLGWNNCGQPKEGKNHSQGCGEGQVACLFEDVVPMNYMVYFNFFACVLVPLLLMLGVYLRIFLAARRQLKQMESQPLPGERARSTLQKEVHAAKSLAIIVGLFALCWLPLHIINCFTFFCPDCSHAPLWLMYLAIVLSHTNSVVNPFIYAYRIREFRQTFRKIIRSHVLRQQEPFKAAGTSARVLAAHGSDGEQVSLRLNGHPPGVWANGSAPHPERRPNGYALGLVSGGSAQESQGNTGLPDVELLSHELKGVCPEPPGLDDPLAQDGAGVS

OC[C@H]1O[C@@H](n2cnc3c(NC4CCCC4)ncnc32)[C@H](O)[C@@H]1O [CPA]
Ki (A2AAR [1]): 794 nM

N=c1ccc2c(-c3ccc(C(=O)NCCNC(=O)COc4ccc(CCCn5ncc6c5nc(N)n5nc(-c7ccco7)nc65)cc4)cc3C(=O)O)c3ccc(N)c(S(=O)(=O)O)c3oc-2c1S(=O)(=O)O [MRS5346, 5-((2-(2-(4-(3-(5-amino-2-(furan-2-yl)-7H-pyrazolo[4,3-e][1,2,4]triazolo[1,5-c]pyrimidin-7-yl)propyl)phenoxy)acetamido)-ethyl)-carbamoyl)-2-(6-amino-3-iminio-4,5-disulfonato-3H-xanthen-9-yl)benzoate]
effect on A1 AR in binding (A1 AR; at 10 μM): did not show any effect | inhibition at 10 µM (A1 AR; read-out: inhibition of radioligand binding at A1 AR): 4.6 ± 1.9% | effect on A3 AR in binding (A3 AR; at 10 μM): did not show any effect | inhibition at 10 µM (A3 AR; read-out: inhibition of radioligand binding at A3 AR): 3.8 ± 2.1% | effect on NECA-induced cyclic AMP accumulation (A2B AR): did not show any effect; also recorded: did not inhibit | functional activity in cyclic AMP assay at the A2AAR (A2AAR [2]): antagonist; also recorded: inhibited cyclic AMP accumulation
